Reference: PubChem BioAssay (NCI)
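Five concentrations, 48 hours, 96-well plates. GI50: concentration for 50% inhibition of growth. The concentration for full growth arrest is given as TGI.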

Assays:
Assay in all cases: NCI anticancer screen, dose series, 48 h
[1] = tested on: HCC-2998 colon
[2] = tested on: A549 NSCLC
[3] = tested on: HCT-116 colon
[4] = tested on: ACHN renal
[5] = tested on: MDA-MB-435
[6] = tested on: PC-3 prostate
[7] = tested on: HL-60(TB) leukemia
[8] = tested on: RXF 393 renal
[9] = tested on: OVCAR-3 ovarian
[10] = tested on: BT-549 breast

| SMILES | TGI [1] | TGI [2] | TGI [3] | TGI [4] | TGI [5] | TGI [6] | TGI [7] | TGI [8] | TGI [9] | TGI [10] | GI50 [10] | GI50 [1] | GI50 [9] | GI50 [5] | GI50 [6] | GI50 [7] | GI50 [3] | GI50 [4] | GI50 [8] |
| --- | --- | --- | --- | --- | --- | --- | --- | --- | --- | --- | --- | --- | --- | --- | --- | --- | --- | --- | --- |
| O=C(CP(c1ccccc1)c1ccccc1)c1cccc(C(=O)CP(c2ccccc2)c2ccccc2)c1 | > 100 µM | > 100 µM | > 100 µM | > 100 µM | > 100 µM | > 100 µM | 42.8 µM | > 100 µM | – | – | – | – | – | – | – | – | – | – | – |
| C1OCC2S[C@@H]3COCO[C@@H]3C2O1 (some centres undefined) | > 100 µM | > 100 µM | > 100 µM | > 100 µM | – | – | > 100 µM | > 100 µM | > 100 µM | – | – | – | – | – | – | – | – | – | – |
| CCOC(=O)c1cnc(-n2[nH]c(C)c(CCO)c2=O)[nH]c1=O | > 100 µM | > 100 µM | > 100 µM | > 100 µM | > 100 µM | > 100 µM | > 100 µM | > 100 µM | > 100 µM | – | – | – | – | – | – | – | – | – | – |
| COc1ccc(/C=C2\CN(C)Cc3c2nc(N)nc3-c2ccc(OC)cc2)cc1 | > 100 µM | > 100 µM | > 100 µM | > 100 µM | – | – | 85.2 µM | > 100 µM | > 100 µM | – | – | – | – | – | – | – | – | – | – |
| CCC(C)[C@H](NC(=O)[C@H](Cc1ccccc1)NC(=O)N(CC)c1ccccc1)C(=O)N[C@@H](CC(C)C)C(=O)OC (some centres undefined) | > 100 µM | > 100 µM | > 100 µM | 72.7 µM | > 100 µM | > 100 µM | – | > 100 µM | > 100 µM | > 100 µM | – | – | – | – | – | – | – | – | – |
| CN(C)CC(/C(Cc1ccccc1)=N\NC(=O)C[n+]1ccccc1)c1ccccc1 (centres undefined) | > 100 µM | > 100 µM | > 100 µM | > 100 µM | – | – | > 100 µM | > 100 µM | > 100 µM | – | – | – | – | – | – | – | – | – | – |
| COC(=O)c1cn(CCCC(=O)O)nn1 | > 100 µM | > 100 µM | > 100 µM | > 100 µM | > 100 µM | > 100 µM | – | > 100 µM | – | > 100 µM | – | – | – | – | – | – | – | – | – |
| COc1cc2c(cc1OCCCN1CCN(CCCOc3cc4c(cc3OC)C(=O)N3CCC[C@H]3C=N4)CC1)C=CC(C)(C)O2 | 2.07 µM | – | – | – | 2.55 µM | 2.09 µM | 0.738 µM | – | 2.67 µM | 2.47 µM | 0.941 µM | 0.683 µM | 1.36 µM | 1.24 µM | 0.804 µM | 0.252 µM | – | – | – |
| Cc1c2cc[nH]c(C(F)(F)F)c2cc2c1nc1ccccc12 | > 125 µM | > 125 µM | > 125 µM | – | – | – | > 125 µM | > 125 µM | > 125 µM | – | – | – | – | – | – | – | – | – | – |
| C1CC2=C(C1)[Se]C(=C1Sc3nsnc3S1)[Se]2 | > 100 µM | > 100 µM | > 100 µM | > 100 µM | > 100 µM | > 100 µM | – | – | > 100 µM | > 100 µM | – | – | – | – | – | – | – | – | – |
| Nc1nc2c(=O)c3ccccc3sc2s1 | – | > 100 µM | > 100 µM | > 100 µM | > 100 µM | > 100 µM | > 100 µM | > 100 µM | > 100 µM | > 100 µM | – | – | – | – | – | – | – | – | – |
| O=C(O)CCCl | – | > 5000 µM | > 5000 µM | > 5000 µM | – | – | > 5000 µM | > 5000 µM | – | – | – | – | – | – | – | – | – | – | – |
| CC[n+]1cnc(N)c2c(-c3ccc(Cl)cc3)cn(-c3ccc(C)cc3)c21 | 14.8 µM | 25.7 µM | 21.3 µM | 25.6 µM | 23.7 µM | 25 µM | 44.3 µM | 18.2 µM | 21.6 µM | – | – | – | – | – | – | – | – | – | – |
| O=C(CSCC(=O)N/N=C/c1cc(I)cc(I)c1O)N/N=C/c1cc(I)cc(I)c1O | 38.1 µM | > 100 µM | 33.9 µM | 32.2 µM | 92.9 µM | > 100 µM | 43.5 µM | 24.5 µM | > 100 µM | – | – | – | – | – | – | – | – | – | – |
| COc1ccc(Cn2c(C)nc3c2C(=O)c2ccccc2C3=O)cc1 | > 75 µM | 36.1 µM | 13 µM | 48.9 µM | – | – | 22.2 µM | 63.4 µM | 24 µM | – | – | – | – | – | – | – | – | – | – |
| O=C1c2c(F)c(F)c(F)c(F)c2SC2=NCCN12 | 28 µM | 30.1 µM | 5.24 µM | 21.1 µM | 8.59 µM | 27.2 µM | – | 8.89 µM | 9.21 µM | 28 µM | – | – | – | – | – | – | – | – | – |
| Cc1ccc(C2CC(=O)CC(c3ccc(C)cc3)C23C(=O)NC(=O)NC3=O)cc1 (centres undefined) | > 100 µM | – | > 100 µM | > 100 µM | > 100 µM | > 100 µM | – | > 100 µM | > 100 µM | > 100 µM | – | – | – | – | – | – | – | – | – |
| FC(F)(F)c1ccc(-c2nc(-c3nc4cc(Cl)c(Cl)cc4[nH]3)c3ccccn23)cc1 | > 100 µM | – | > 100 µM | 28.5 µM | – | – | > 100 µM | 5.99 µM | > 100 µM | > 100 µM | 8.69 µM | > 100 µM | 3.74 µM | – | – | > 100 µM | 2.92 µM | 3.9 µM | 2.26 µM |
| C=C1C(=O)OC2/C=C(\C)C(OC(C)=O)C3OC3C(C)(O)CC(OC(=O)/C(C)=C/C)C12 (centres undefined) | 21.3 µM | 42.6 µM | 5.86 µM | 31.7 µM | – | – | 5.81 µM | 19.3 µM | 15.8 µM | – | – | – | – | – | – | – | – | – | – |
| C1=C(c2ccccc2)CN(c2ccccc2)OC1 | > 100 µM | > 100 µM | – | > 100 µM | – | – | > 100 µM | > 100 µM | > 100 µM | – | – | – | – | – | – | – | – | – | – |
| O=C(Nc1c(O)[nH]c(=S)[nH]c1=O)c1ccccn1 | – | > 100 µM | > 100 µM | > 100 µM | – | – | > 100 µM | – | > 100 µM | – | – | – | – | – | – | – | – | – | – |
| O=C(COc1ccc(OCC(=O)N2C(=O)CC(=O)N(c3ccccc3)C2=S)cc1)N1C(=O)CC(=O)N(c2ccccc2)C1=S | > 100 µM | > 100 µM | 60.1 µM | > 100 µM | > 100 µM | > 100 µM | – | 95 µM | – | > 100 µM | – | – | – | – | – | – | – | – | – |
| c1csc(-c2ccc(-c3ccc(-c4ccc(-c5cccs5)s4)s3)s2)c1 | > 100 µM | – | > 100 µM | > 100 µM | > 100 µM | – | 53.6 µM | > 100 µM | > 100 µM | – | – | – | – | – | – | – | – | – | – |
